Earlier results as cited in EP2391353B1, “PHARMACEUTICAL COMPOSITIONS OF TRIMETAZIDINE” (Lupin Limited, priority 2009, dated 2010).

Conditions: administered orally

COc1ccc(CN2CCNCC2)c(OC)c1OC.Cl.Cl [Trimetazidine dihydrochloride, 1-(2,3,4-trimethoxybenzyl)-piperazine dihydrochloride]
Tmax: around 1.8 ± 0.7 hours | plasma half-life: around 6.0 ± 1.4 hours
